Experimental data from article PMC8279406 (Journal of Medicinal Chemistry, 2021).

Key:
human α5β1 integrin = target: T1, human α5β1 integrin (Homo sapiens, UniProt P05556+P08648); experiment: Fibronectin-α5β1 competitive solid-phase ELISA binding assay; conditions: immobilized fibronectin, soluble integrin
T1 construct: purchased R&D Systems (Biotechne brand) 3230-A5
Method: (§1) The affinity and selectivity of the integrin peptide ligands were ascertained according to a modified method previously reported by some of us.[33],[47] The binding was determined in a competitive solid-phase binding assay using extracellular matrix proteins, soluble integrins, and pertinent integrin-specific antibodies in an enzyme-linked immunosorbent assay (ELISA).
The experimental procedure was as described for the αvβ6 assay, except for the following modifications. […] Visualization and analysis were performed as described above.

integrin β8 = system: T2, integrin β8; experiment: Integrin internalization assay, surface integrin β8 by flow cytometry; type: cell-based, human; conditions: J cells with nectin1, αvβ6 and αvβ8, 700 μM, 1 h at 37 °C
T2 construct: expressed in transfected cells; host or cells: J cells (derivatives of BHK-TK2 hamster cells)
Excerpt: Therefore, another mechanism might be responsible for the activity of 6 on J cells expressing αvβ8 integrin alone as well as the higher activity of 6 than that of 1 in cells that express both αvβ6 and αvβ8.[38] Thus, we hypothesized that 6 can prevent HSV-1 entry into J cells expressing nectin1 and the αvβ8 integrin alone by inducing internalization of the integrin itself. To validate our hypothesis, J cells were transfected with nectin1 and the two integrins αvβ6 and αvβ8 in the above-described manner. Then, 48 h after transfection, the cells were incubated for 60 min at 37 °C with 1 or 6. The surface expression of integrin β6 and β8, in the presence or the absence of peptides, was then evaluated by flow cytometry using FAB4155A (mAbβ6) and FAB4775A (mAbβ8) monoclonal antibodies that recognize other integrin regions than the RGD-binding domain.
Figure 5 Integrin internalization assay. J cells were transfected with a low amount (75 ng of DNA/24 well) of nectin1 plus αvβ6 integrin (300 ng of DNA/24 well) and αvβ8 integrin (300 ng of DNA/24 well). Then, 48 h after transfection, the cells were exposed to 700 μM peptides for 1 h at 37 °C. […] Integrin and nectin1 surface expression levels were quantified as flow cytometry expression of the APC mean fluorescence intensity (MFI) of gated cells. […]

human αvβ3-integrin = target: T3, human αvβ3-integrin (Homo sapiens, UniProt P05106+P06756); experiment: Vitronectin-αvβ3 competitive solid-phase ELISA binding assay
T3 construct: purchased R&D Systems (Biotechne brand) 3050-AV
Method: as §1
The experimental procedure was as described for the αvβ6 assay, except for the following modifications. The plates were coated with 100 μL/well of 1.0 μg/mL vitronectin in carbonate buffer, washed, and blocked as described above. […] As a primary antibody, 100 μL/well of 2.0 μg/mL primary antibody (mouse antihuman CD51/61) was used. The secondary antibody used was the same as that used for the integrin αvβ6 assay. Visualization and analysis were performed as described above.

human αvβ6 integrin = target: T4, human αvβ6 integrin (Homo sapiens, UniProt P06756+P18564); experiment: LAP(TGF-β1)-αvβ6 competitive solid-phase ELISA binding assay; conditions: immobilized LAP, soluble integrin
T4 construct: using immobilized ECM protein and soluble integrin; purchased R&D Systems (Biotechne brand) 3817-AV
Method: as §1
A flat-bottom 96-well ELISA plate was coated overnight at 4 °C with 100 μL/well of 0.4 μg/mL LAP previously diluted in carbonate buffer (15 mM Na2CO3, 35 mM NaHCO3, pH 9.6). Afterward, each well was then washed three times with 200 μL of PBS-T buffer (137 mM NaCl, 2.7 mM KCl, 10 mM Na2HPO4, 2 mM KH2PO4, 0.01% Tween 20, pH 7.4) and blocked for 1 h at room temperature with 150 μL/well TSB buffer (20 mM Tris–HCl, 150 mM NaCl, 1 mM CaCl2, 1 mM MgCl2, 1 mM MnCl2, pH 7.5, 1% BSA). Then, each well was washed three times with 200 μL of PBS-T.
Equal volumes (50 μL) of the internal standard (or test compounds) were mixed with 0.5 μg/mL human integrin αvβ6 (50 μL) giving a final dilution series in TSB buffer of 0.00064–10 μM for the inhibitors and 0.25 μg/mL for integrin αvβ6. These solutions (100 μL/well) were added to the flat-bottom ELISA plate and incubated for 1 h at room temperature. The solutions were discarded from the wells, and the plate was washed three times with PBS-T buffer (3 × 200 μL). […] The solutions were discarded from the wells, and the plate was washed three times with PBS-T (3 × 200 μL). The binding assay was developed by adding 50 μL/well of the 3,3′,5,5′-tetramethylbenzidine (TMB) liquid substrate system and incubating for 1 min at room temperature. The reaction was stopped by adding 50 μL/well of 3 M H2SO4. The peroxidase product formation was detected by measuring the absorbance at […] using a plate reader (Tecan SpectraFLUOR plus, Männedorf, Switzerland). Each compound concentration was tested in duplicate, and the resulting inhibition curves were analyzed using OriginPro 7.5G software; the inflection point describes the IC50 value. Each plate contained a linear peptide ([…]) as the internal standard.[63]

CN1C(=O)[C@H](C2CCCCC2)NC(=O)[C@H](CC(=O)O)NC(=O)CNC(=O)[C@H](CCCNC(=N)N)NC(=O)CC[C@H]1C(N)=O [compound 6, [Arg-Gly-Asp-Chg-(NMe)Glu]-CONH2]
IC50 (human α5β1 integrin): 112 ± 26 nM
integrin β8 surface level (in words) (integrin β8): reduced
binding affinity for αvβ3 (in words) (human αvβ3-integrin): no significant binding affinity
IC50 (human αvβ3-integrin; competitive ELISA, immobilized vitronectin, soluble integrin): 1200 ± 121 nM
IC50 (human αvβ6 integrin): 1.6 ± 0.1 nM
